In US9040707B2, “Bicyclic thiazoles as allosteric modulators of mGluR5 receptors” (Janssen Pharmaceutica NV, priority 2009, dated 2015):

Columns and labels:
human mGluR5 receptor = target: T1, human mGluR5 receptor (Homo sapiens, UniProt P41594); test: Functional Assay 1: intracellular Ca2+ mobilization, positive allosteric modulation of glutamate EC20 response; type: cell-based; settings: maximum % effect relative to glutamate ECMax
T1 construct: expressed in transfected cells; host or cells: HEK-293
T1 sequence (P41594 21-1180 isoform P41594-2 limits assumed): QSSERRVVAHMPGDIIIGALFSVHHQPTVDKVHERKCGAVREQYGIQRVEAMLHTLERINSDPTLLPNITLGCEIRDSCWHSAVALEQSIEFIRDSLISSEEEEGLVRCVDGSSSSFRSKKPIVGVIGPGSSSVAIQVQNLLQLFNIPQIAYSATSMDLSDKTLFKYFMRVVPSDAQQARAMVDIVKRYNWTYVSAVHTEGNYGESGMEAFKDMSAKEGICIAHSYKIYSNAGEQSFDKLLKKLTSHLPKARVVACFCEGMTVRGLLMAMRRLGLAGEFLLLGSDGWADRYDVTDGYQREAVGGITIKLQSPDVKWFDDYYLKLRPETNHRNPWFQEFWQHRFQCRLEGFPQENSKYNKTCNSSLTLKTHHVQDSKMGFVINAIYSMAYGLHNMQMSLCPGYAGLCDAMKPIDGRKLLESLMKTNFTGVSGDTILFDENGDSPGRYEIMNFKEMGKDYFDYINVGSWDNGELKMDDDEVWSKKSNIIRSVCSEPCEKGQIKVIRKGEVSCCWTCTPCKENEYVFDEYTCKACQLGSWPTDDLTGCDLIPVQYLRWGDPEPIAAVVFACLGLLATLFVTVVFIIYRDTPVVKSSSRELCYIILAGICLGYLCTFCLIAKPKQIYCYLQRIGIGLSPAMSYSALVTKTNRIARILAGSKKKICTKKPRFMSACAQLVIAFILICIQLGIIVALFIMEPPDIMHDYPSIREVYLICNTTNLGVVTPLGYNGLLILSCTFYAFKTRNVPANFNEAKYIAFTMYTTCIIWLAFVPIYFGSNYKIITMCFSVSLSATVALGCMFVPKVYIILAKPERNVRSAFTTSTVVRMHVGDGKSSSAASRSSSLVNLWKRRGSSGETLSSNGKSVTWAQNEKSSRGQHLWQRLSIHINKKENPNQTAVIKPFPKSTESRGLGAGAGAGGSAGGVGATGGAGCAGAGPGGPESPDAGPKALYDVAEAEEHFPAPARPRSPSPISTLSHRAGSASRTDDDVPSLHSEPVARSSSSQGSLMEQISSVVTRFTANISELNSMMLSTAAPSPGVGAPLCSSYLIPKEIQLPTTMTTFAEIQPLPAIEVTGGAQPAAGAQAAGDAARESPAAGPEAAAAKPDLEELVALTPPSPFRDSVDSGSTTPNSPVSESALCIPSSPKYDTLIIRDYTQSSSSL

human mGluR5a receptor = target: T2, human mGluR5a receptor (Homo sapiens, UniProt P41594); test: Functional Assay 2: Ca2+ mobilization, HEK cells with human mGluR5a receptor (H10H cell line); type: cell-based; settings: HEK293; H10H cell line; maximum average response at a single concentration, relative to glutamate ECMax
T2 construct: host or cells: HEK293A (monoclones H10H and H12H)
T2 sequence (P41594 21-1180 isoform P41594-2 limits assumed): as above

[1] = system: amphetamine-induced hyperlocomotion; test: Rat hyperlocomotion assay (reversal of amphetamine-induced hyperlocomotion); type: in vivo; settings: male Sprague-Dawley rats; 3.0, 10.0, 30.0, 56.6 mg/kg p.o.; amphetamine sulphate 1.0 mg/kg s.c.; FIG. 1
Protocol: Locomotor activity was assessed as mean distance traveled (cm) in standard 16×16 photocell testing chambers measuring 43.2 cm (Length)×43.2 cm (Width)×30.5 cm (Height) (Med Associates, St. Albans, Vt.). Animals were habituated to individual activity chambers for at least 30 min prior to drug administration. Following administration of drug or vehicle, activity was recorded for a 90 minute time period. Data was expressed as the mean (±SEM) distance traveled recorded in 5 min intervals over the test period. The data was analyzed using repeated measures analysis of variance (ANOVA) followed by post-hoc testing using Dunnett's test, when appropriate. A difference was considered significant when p≦05. […]
The animals were habituated in Smart Open Field locomotor activity test chambers (Hamilton-Kinder, San Diego, Calif.) with 16×16 photobeams to automatically record locomotor activity for 30 min and then dosed with vehicle or test compound. […] At 60 min, all rats were injected subcutaneously with 1 mg/kg amphetamine or vehicle and then monitored for an additional 60 min. Animals are monitored for a total of 120 minutes. Data are expressed as changes in ambulation defined as total number of beam breaks per 5 min periods.
The data for the dose-response studies were analyzed by a between-group analysis of variance. […]

Emax (human mGluR5 receptor): 88%
Emax (human mGluR5a receptor): 77%
SMILES: CN1CCc2nc(COc3ccccc3)sc2C1=O [Compound 8, 6,7-dihydro-5-methyl-2-(phenoxymethyl)-thiazolo[5,4-c]pyridin-4(5H)-one]
reversal of amphetamine-induced hyperlocomotion [1]: dose-dependent reversal effects
